{
  "source": "ChEMBL document CHEMBL2074026",
  "about": "“Novel experimental parameters to quantify the modulation of absorptive and secretory transport of compounds by P-glycoprotein in cell culture models of intestinal epithelium” (Pharm Res, 2003)",
  "type_in_all_cases": "functional, cell-based",
  "key": {"[1]": {"biological_target": "T1, ATP-dependent translocase ABCB1 (Homo sapiens, UniProt P08183)", "T1 sequence (P08183 whole entry)": "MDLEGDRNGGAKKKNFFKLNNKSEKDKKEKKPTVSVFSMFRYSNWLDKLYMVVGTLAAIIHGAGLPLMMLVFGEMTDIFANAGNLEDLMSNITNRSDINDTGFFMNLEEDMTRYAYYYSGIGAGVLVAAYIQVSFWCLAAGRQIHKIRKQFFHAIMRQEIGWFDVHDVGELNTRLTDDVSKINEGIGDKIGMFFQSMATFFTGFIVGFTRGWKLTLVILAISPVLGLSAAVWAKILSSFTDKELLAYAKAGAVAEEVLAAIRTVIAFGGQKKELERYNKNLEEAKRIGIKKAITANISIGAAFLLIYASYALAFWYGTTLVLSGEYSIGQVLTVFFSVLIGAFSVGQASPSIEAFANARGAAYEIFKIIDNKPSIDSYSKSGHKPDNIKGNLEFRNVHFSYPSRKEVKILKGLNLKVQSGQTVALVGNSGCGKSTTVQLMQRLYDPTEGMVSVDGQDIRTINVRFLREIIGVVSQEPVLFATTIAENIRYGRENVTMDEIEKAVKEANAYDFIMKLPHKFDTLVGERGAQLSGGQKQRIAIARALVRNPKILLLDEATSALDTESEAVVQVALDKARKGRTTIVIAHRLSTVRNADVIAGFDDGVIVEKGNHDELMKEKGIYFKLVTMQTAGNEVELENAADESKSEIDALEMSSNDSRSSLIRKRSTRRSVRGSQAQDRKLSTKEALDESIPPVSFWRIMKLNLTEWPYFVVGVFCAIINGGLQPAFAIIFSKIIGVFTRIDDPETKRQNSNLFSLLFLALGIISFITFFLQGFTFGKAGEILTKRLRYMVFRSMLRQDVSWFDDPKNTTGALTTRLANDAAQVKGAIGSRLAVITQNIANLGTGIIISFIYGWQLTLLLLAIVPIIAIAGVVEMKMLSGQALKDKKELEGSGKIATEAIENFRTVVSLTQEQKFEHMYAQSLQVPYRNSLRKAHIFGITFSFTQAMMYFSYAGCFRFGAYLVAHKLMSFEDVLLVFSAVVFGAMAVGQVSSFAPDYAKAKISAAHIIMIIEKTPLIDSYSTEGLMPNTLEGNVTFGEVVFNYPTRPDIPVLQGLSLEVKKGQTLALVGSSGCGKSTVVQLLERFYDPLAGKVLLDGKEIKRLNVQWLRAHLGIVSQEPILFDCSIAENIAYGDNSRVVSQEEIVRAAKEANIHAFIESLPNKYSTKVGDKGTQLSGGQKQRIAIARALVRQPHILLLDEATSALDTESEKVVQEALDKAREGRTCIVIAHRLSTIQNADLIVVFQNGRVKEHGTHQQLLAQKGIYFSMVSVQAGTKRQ", "assay": "TP_TRANSPORTER: transepithelial transport of Saquinavir at a concentration of 20 uM in Caco-2 cells", "conditions": "caco-2, 20 µM"}, "[2]": {"biological_target": "T1, ATP-dependent translocase ABCB1", "assay": "TP_TRANSPORTER: transepithelial transport of Saquinavir at a concentration of 20 uM in MDR1-expressing MDCK cells", "conditions": "dog"}, "[3]": {"biological_target": "T1, ATP-dependent translocase ABCB1", "assay": "TP_TRANSPORTER: transepithelial transport of Acebutolol at a concentration of 20 uM in MDR1-expressing MDCK cells", "conditions": "dog"}, "[4]": {"biological_target": "T1, ATP-dependent translocase ABCB1", "assay": "TP_TRANSPORTER: transepithelial transport of Acebutolol at a concentration of 20 uM in Caco-2 cells", "conditions": "caco-2, 20 µM"}, "[5]": {"biological_target": "T1, ATP-dependent translocase ABCB1", "assay": "TP_TRANSPORTER: transepithelial transport of Colchicine at a concentration of 25 uM in Caco-2 cells", "conditions": "caco-2, 25 µM"}, "[6]": {"biological_target": "T1, ATP-dependent translocase ABCB1", "assay": "TP_TRANSPORTER: transepithelial transport of Colchicine at a concentration of 25 uM in MDR1-expressing MDCK cells", "conditions": "dog"}, "[7]": {"biological_target": "T1, ATP-dependent translocase ABCB1", "assay": "TP_TRANSPORTER: transepithelial transport of Digoxin at a concentration of 10 uM in MDR1-expressing MDCK cells", "conditions": "dog"}, "[8]": {"biological_target": "T1, ATP-dependent translocase ABCB1", "assay": "TP_TRANSPORTER: transepithelial transport of Digoxin at a concentration of 10 uM in Caco-2 cells"}, "[9]": {"biological_target": "T1, ATP-dependent translocase ABCB1", "assay": "TP_TRANSPORTER: transepithelial transport of Doxorubicin at a concentration of 10 uM in MDR1-expressing MDCK cells", "conditions": "dog"}, "[10]": {"biological_target": "T1, ATP-dependent translocase ABCB1", "assay": "TP_TRANSPORTER: transepithelial transport of Doxorubicin at a concentration of 10 uM in Caco-2 cells"}, "[11]": {"biological_target": "T1, ATP-dependent translocase ABCB1", "assay": "TP_TRANSPORTER: transepithelial transport of Methylprednisolone at a concentration of 20 uM in Caco-2 cells", "conditions": "caco-2, 20 µM"}, "[12]": {"biological_target": "T1, ATP-dependent translocase ABCB1", "assay": "TP_TRANSPORTER: transepithelial transport of Methylprednisolone at a concentration of 20 uM in MDR1-expressing MDCK cells", "conditions": "dog"}, "[13]": {"biological_target": "T1, ATP-dependent translocase ABCB1", "assay": "TP_TRANSPORTER: transepithelial transport of Taxol at a concentration of 10 uM in MDR1-expressing MDCK cells", "conditions": "dog"}, "[14]": {"biological_target": "T1, ATP-dependent translocase ABCB1", "assay": "TP_TRANSPORTER: transepithelial transport of Taxol at a concentration of 10 uM in Caco-2 cells"}, "[15]": {"biological_target": "T1, ATP-dependent translocase ABCB1", "assay": "TP_TRANSPORTER: transepithelial transport of Prednisolone at a concentration of 20 uM in MDR1-expressing MDCK cells", "conditions": "dog"}, "[16]": {"biological_target": "T1, ATP-dependent translocase ABCB1", "assay": "TP_TRANSPORTER: transepithelial transport of Ranitidine at a concentration of 100 uM in Caco-2 cells", "conditions": "caco-2, 100 µM"}, "[17]": {"biological_target": "T1, ATP-dependent translocase ABCB1", "assay": "TP_TRANSPORTER: transepithelial transport of Ranitidine at a concentration of 100 uM in MDR1-expressing MDCK cells", "conditions": "dog"}, "[18]": {"biological_target": "T1, ATP-dependent translocase ABCB1", "assay": "TP_TRANSPORTER: transepithelial transport of Rhodamine at a concentration of 10 uM in Caco-2 cells"}, "[19]": {"biological_target": "T1, ATP-dependent translocase ABCB1", "assay": "TP_TRANSPORTER: transepithelial transport of Rhodamine at a concentration of 10 uM in MDR1-expressing MDCK cells", "conditions": "dog"}, "[20]": {"biological_target": "T1, ATP-dependent translocase ABCB1", "assay": "TP_TRANSPORTER: transepithelial transport of Vinblastine at a concentration of 0.1 uM in MDR1-expressing MDCK cells", "conditions": "dog"}, "[21]": {"biological_target": "T1, ATP-dependent translocase ABCB1", "assay": "TP_TRANSPORTER: transepithelial transport in the presence of Vinblastine at 0.1 uM in Caco-2 cells"}},
  "data": [
    {"smiles": "CC(C)(C)NC(=O)[C@@H]1C[C@@H]2CCCC[C@@H]2CN1C[C@@H](O)[C@H](Cc1ccccc1)NC(=O)[C@H](CC(N)=O)NC(=O)c1ccc2ccccc2n1", "values": [
      {"measurement": "Activity", "setting": "[1]", "result": "substrate [+]"},
      {"measurement": "Activity", "setting": "[2]", "result": "substrate [+]"}
    ]},
    {"smiles": "CCCC(=O)Nc1ccc(OCC(O)CNC(C)C)c(C(C)=O)c1", "note": "(stereo unspecified) [ACEBUTOLOL]", "values": [
      {"measurement": "Activity", "setting": "[3]", "result": "substrate [+]"},
      {"measurement": "Activity", "setting": "[4]", "result": "substrate [+]"}
    ]},
    {"smiles": "COc1cc2c(c(OC)c1OC)-c1ccc(OC)c(=O)cc1[C@@H](NC(C)=O)CC2", "note": "[COLCHICINE]", "values": [
      {"measurement": "Activity", "setting": "[5]", "result": "substrate [+]"},
      {"measurement": "Activity", "setting": "[6]", "result": "substrate [+]"}
    ]},
    {"smiles": "C[C@H]1O[C@@H](O[C@H]2[C@@H](O)C[C@H](O[C@H]3[C@@H](O)C[C@H](O[C@H]4CC[C@@]5(C)[C@H](CC[C@@H]6[C@@H]5C[C@@H](O)[C@]5(C)[C@@H](C7=CC(=O)OC7)CC[C@]65O)C4)O[C@@H]3C)O[C@@H]2C)C[C@H](O)[C@@H]1O", "note": "[DIGOXIN]", "values": [
      {"measurement": "Activity", "setting": "[7]", "result": "substrate [+]"},
      {"measurement": "Activity", "setting": "[8]", "result": "substrate [+]"}
    ]},
    {"smiles": "COc1cccc2c1C(=O)c1c(O)c3c(c(O)c1C2=O)C[C@@](O)(C(=O)CO)C[C@@H]3O[C@H]1C[C@H](N)[C@H](O)[C@H](C)O1", "note": "[DOXORUBICIN]", "values": [
      {"measurement": "Activity", "setting": "[9]", "result": "substrate [+]"},
      {"measurement": "Activity", "setting": "[10]", "result": "substrate [+]"}
    ]},
    {"smiles": "C[C@H]1C[C@@H]2[C@H]([C@@H](O)C[C@@]3(C)[C@H]2CC[C@]3(O)C(=O)CO)[C@@]2(C)C=CC(=O)C=C12", "note": "[METHYLPREDNISOLONE]", "values": [
      {"measurement": "Activity", "setting": "[11]", "result": "substrate [+]"},
      {"measurement": "Activity", "setting": "[12]", "result": "substrate [+]"}
    ]},
    {"smiles": "CC(=O)O[C@H]1C(=O)[C@@]2(C)[C@H]([C@H](OC(=O)c3ccccc3)[C@]3(O)C[C@H](OC(=O)[C@H](O)[C@@H](NC(=O)c4ccccc4)c4ccccc4)C(C)=C1C3(C)C)[C@]1(OC(C)=O)CO[C@@H]1C[C@@H]2O", "note": "[PACLITAXEL]", "values": [
      {"measurement": "Activity", "setting": "[13]", "result": "substrate [+]"},
      {"measurement": "Activity", "setting": "[14]", "result": "substrate [+]"}
    ]},
    {"smiles": "C[C@]12C=CC(=O)C=C1CC[C@@H]1[C@@H]2[C@@H](O)C[C@@]2(C)[C@H]1CC[C@]2(O)C(=O)CO", "note": "[PREDNISOLONE]", "values": [
      {"measurement": "Activity", "setting": "[15]", "result": "substrate [+]"}
    ]},
    {"smiles": "CNC(=C[N+](=O)[O-])NCCSCc1ccc(CN(C)C)o1", "note": "[RANITIDINE]", "values": [
      {"measurement": "Activity", "setting": "[16]", "result": "substrate [+]"},
      {"measurement": "Activity", "setting": "[17]", "result": "substrate [+]"}
    ]},
    {"smiles": "CCN(CC)c1ccc2c(-c3ccccc3C(=O)O)c3ccc(=[N+](CC)CC)cc-3oc2c1.[Cl-]", "note": "[RHODAMINE]", "values": [
      {"measurement": "Activity", "setting": "[18]", "result": "substrate [+]"},
      {"measurement": "Activity", "setting": "[19]", "result": "substrate [+]"}
    ]},
    {"smiles": "CC[C@]1(O)C[C@@H]2CN(CCc3c([nH]c4ccccc34)[C@@](C(=O)OC)(c3cc4c(cc3OC)N(C)[C@H]3[C@@](O)(C(=O)OC)[C@H](OC(C)=O)[C@]5(CC)C=CCN6CC[C@]43[C@@H]65)C2)C1", "note": "[VINBLASTINE]", "values": [
      {"measurement": "Activity", "setting": "[20]", "result": "substrate [+]"},
      {"measurement": "Activity", "setting": "[21]", "result": "substrate [+]"}
    ]}
  ]
}
